According to patent US20250051344A1, “BIFUNCTIONAL SELECTIVE DEGRADERS OF SMARCA2 AND THERAPEUTIC USES THEREOF” (Nurix Therapeutics, Inc., priority 2023, published 2025):

Tests used:
SMARCA4 = molecular target: T1, SMARCA4 (Homo sapiens, UniProt P51532); assay: Cellular degradation assay, SMARCA4 (Table 1); type: cell-based
T1 construct: endogenous in cells

SMARCA2 = molecular target: T2, SMARCA2 (Homo sapiens, UniProt P51531); assay: SMARCA2 Cellular Degradation Assay (Western blot analysis on Jess platform); type: cell-based; conditions: for DC50 / Dmax: cellular degradation; for Fold Selectivity SMARCA4/2: ratio DC50 SMARCA4 / DC50 SMARCA2
T2 construct: endogenous in cells
In short: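 Lysates of cells extracted from tumors were prepared in supplemented RIPA buffer, and 5 μg total protein per capillary was analysed by capillary Western (Jess) with anti-SMARCA2 and anti-β-actin antibodies. SMARCA2 electropherogram area was background-subtracted, normalized to actin, and expressed as percent remaining versus vehicle control.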

T2 sequence (P51531 whole entry, species assumed): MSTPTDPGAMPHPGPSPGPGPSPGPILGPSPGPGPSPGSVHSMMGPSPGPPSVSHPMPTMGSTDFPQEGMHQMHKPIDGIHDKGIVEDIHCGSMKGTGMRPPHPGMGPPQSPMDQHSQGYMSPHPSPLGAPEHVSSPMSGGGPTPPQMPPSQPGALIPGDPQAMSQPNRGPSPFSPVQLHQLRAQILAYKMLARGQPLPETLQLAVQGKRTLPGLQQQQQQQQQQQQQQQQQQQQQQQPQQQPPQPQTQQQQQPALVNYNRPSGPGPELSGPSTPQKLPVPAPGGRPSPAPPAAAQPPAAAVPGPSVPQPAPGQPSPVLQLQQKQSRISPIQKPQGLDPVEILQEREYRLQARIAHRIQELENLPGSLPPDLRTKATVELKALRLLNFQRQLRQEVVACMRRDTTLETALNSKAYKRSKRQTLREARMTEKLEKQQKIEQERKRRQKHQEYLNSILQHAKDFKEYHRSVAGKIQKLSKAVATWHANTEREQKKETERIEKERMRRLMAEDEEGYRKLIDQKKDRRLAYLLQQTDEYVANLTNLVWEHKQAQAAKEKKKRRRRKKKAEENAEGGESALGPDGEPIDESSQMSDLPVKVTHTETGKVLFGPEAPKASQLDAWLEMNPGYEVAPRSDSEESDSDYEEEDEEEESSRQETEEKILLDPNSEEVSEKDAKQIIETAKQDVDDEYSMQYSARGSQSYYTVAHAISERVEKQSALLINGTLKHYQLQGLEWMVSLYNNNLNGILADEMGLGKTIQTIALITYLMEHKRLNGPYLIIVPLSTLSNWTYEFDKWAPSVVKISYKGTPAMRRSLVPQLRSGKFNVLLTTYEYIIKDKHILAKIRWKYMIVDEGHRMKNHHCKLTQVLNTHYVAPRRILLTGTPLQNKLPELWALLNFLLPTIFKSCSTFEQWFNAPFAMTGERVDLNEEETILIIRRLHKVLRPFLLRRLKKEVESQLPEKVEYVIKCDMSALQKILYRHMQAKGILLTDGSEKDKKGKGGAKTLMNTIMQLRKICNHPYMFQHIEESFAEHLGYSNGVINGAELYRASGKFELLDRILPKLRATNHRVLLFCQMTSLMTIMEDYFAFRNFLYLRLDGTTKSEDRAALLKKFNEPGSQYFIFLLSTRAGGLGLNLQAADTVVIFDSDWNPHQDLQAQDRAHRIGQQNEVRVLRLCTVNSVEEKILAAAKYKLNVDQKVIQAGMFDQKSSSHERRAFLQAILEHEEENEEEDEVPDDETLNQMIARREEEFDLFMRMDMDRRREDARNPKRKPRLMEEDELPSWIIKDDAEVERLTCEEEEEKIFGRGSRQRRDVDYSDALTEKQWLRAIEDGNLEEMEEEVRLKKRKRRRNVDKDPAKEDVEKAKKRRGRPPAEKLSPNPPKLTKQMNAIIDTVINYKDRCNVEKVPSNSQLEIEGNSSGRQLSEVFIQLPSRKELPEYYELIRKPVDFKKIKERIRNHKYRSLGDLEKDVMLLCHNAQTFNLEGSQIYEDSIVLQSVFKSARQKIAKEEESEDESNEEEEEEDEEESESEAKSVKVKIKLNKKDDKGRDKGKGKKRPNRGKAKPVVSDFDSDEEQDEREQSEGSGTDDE
T1 sequence (P51532 whole entry, species assumed): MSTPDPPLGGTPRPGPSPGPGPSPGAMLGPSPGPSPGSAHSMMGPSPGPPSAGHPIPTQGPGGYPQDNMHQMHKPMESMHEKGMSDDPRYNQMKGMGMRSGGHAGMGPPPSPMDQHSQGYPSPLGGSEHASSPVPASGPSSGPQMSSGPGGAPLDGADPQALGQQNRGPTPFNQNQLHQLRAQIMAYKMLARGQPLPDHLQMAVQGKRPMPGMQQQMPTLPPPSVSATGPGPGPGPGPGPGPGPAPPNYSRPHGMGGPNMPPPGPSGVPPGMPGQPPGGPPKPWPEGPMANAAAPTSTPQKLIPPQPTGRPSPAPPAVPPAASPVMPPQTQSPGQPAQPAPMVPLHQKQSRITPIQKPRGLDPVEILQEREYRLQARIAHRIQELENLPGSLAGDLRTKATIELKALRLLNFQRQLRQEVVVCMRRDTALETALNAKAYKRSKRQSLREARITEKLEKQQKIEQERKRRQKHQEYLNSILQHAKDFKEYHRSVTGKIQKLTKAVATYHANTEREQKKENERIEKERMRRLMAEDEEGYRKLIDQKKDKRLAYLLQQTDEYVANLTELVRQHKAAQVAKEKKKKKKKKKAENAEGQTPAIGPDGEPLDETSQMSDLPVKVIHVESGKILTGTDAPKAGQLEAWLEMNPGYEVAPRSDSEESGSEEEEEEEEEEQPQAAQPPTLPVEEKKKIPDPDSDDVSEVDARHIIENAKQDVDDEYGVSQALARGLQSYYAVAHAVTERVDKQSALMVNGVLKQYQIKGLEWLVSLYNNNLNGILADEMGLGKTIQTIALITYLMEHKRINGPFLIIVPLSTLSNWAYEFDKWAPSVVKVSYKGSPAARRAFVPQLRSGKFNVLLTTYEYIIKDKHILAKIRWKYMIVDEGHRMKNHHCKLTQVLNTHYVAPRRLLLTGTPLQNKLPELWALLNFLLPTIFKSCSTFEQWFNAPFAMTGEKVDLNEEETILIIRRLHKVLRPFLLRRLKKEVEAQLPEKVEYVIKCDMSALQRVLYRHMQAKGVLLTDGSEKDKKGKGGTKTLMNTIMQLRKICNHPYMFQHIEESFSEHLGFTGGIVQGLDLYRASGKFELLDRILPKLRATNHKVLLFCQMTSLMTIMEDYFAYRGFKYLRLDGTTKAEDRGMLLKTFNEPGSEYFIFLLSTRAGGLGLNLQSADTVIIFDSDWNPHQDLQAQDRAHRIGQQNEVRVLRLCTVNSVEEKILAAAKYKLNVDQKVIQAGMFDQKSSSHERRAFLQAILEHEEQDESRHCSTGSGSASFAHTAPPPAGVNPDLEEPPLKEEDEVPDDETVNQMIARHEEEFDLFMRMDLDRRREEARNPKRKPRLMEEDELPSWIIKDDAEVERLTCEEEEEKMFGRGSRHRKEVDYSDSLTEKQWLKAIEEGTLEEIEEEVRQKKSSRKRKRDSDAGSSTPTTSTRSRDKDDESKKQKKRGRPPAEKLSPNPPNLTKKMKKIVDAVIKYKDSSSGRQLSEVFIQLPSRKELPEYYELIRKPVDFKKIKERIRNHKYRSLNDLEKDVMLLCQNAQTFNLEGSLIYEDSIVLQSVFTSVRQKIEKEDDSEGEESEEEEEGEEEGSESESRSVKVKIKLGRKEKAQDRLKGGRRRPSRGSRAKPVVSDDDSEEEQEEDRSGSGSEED

Compound | DC50 (SMARCA4) | Dmax (SMARCA4) | DC50 (SMARCA2) | Dmax (SMARCA2) | Fold Selectivity SMARCA4/2 (SMARCA2)
O=C1CCC(c2ccc(N3CCOC4(CCN(CC(=O)N5CCC6(CC5)CN(C(=O)C5(c7ccccc7)CCN(c7cnnc(-c8ccccc8O)c7)CC5)C6)CC4)C3)cc2)C(=O)N1 (racemic) [Example 152, rac-(3R)-3-(4-{9-[2-(2-{1-[6-(2-hydroxyphenyl)pyridazin-4-yl]-4-phenylpiperidine-4-carbonyl}-2,7-diazaspiro[3.5]nonan-7-yl)-2-oxoethyl]-1-oxa-4,9-diazaspiro[5.5]undecan-4-yl}phenyl)piperidine-2,6-dione] |  | 45.4% | 68.2 nM | 66.5% | 147
O=C1CCC(c2ccc(N3CCC4(CCN(CC5CCN(C(=O)C6(c7ccccc7)CCN(c7cnnc(-c8ccccc8O)c7)CC6)CC5)C4)CC3)cc2)C(=O)N1 (racemic) [Example 163, rac-(3R)-3-(4-{2-[(1-{1-[6-(2-hydroxyphenyl)pyridazin-4-yl]-4-phenylpiperidine-4-carbonyl}piperidin-4-yl)methyl]-2,8-diazaspiro[4.5]decan-8-yl}phenyl)piperidine-2,6-dione] |  | 49.3% | 40.8 nM | 62% | 245
O=C1CC[C@@H](c2ccc(N3CCN(CC4=NO[C@@H]5CN(C(=O)C6(c7ccccc7)CCN(c7cnnc(-c8ccccc8O)c7)CC6)C[C@H]45)CC3)cc2)C(=O)N1 (racemic) [Example 165, (3RS&)-3-[4-(4-{[(3aRS,6aSR)-5-{1-[6-(2-hydroxyphenyl)pyridazin-4-yl]-4-phenylpiperidine-4-carbonyl}-3aH,4H,5H,6H,6aH-pyrrolo[3,4-d][1,2]oxazol-3-yl]methyl}piperazin-1-yl)phenyl]piperidine-2,6-dione] | 1000 nM | 34% | 45.8 nM | 58% | 22
O=C1CC[C@@H](c2ccc(O[C@H]3CC[C@H](CN4CC5(C4)CN(C(=O)C4(c6ccccc6)CCN(c6cnnc(-c7ccccc7O)c6)CC4)C5)CC3)cc2)C(=O)N1 (racemic) [Example 166, (3RS)-3-(4-{[(1r,4r)-4-[(6-{1-[6-(2-hydroxyphenyl)pyridazin-4-yl]-4-phenylpiperidine-4-carbonyl}-2,6-diazaspiro[3.3]heptan-2-yl)methyl]cyclohexyl]oxy}phenyl)piperidine-2,6-dione] | 317 nM | 35.2% | 24.2 nM | 65.8% | 13
O=C1CCC(c2ccc(N3CCC(CCN4CC5(CCCN(C(=O)C6(c7ccccc7)CCN(c7cnnc(-c8ccccc8O)c7)CC6)C5)C4)CC3)cc2)C(=O)N1 (racemic) [Example 167, rac-(3R)-3-(4-{4-[2-(6-{1-[6-(2-hydroxyphenyl)pyridazin-4-yl]-4-phenylpiperidine-4-carbonyl}-2,6-diazaspiro[3.5]nonan-2-yl)ethyl]piperidin-1-yl}phenyl)piperidine-2,6-dione] | 659 nM | 23.7% | 40.1 nM | 67.5% | 16
O=C1CCC(Nc2ccc(C3CCN(CCNC(=O)C4(c5ccccc5)CCN(c5cnnc(-c6ccccc6O)c5)CC4)CC3)cc2)C(=O)N1 (racemic) [Example 170, rac-N-{2-[4-(4-{[(3R)-2,6-dioxopiperidin-3-yl]amino}phenyl)piperidin-1-yl]ethyl}-1-[6-(2-hydroxyphenyl)pyridazin-4-yl]-4-phenylpiperidine-4-carboxamide] |  | 48.5% | 38.3 nM | 59.2% | 261
N#CC1(CN2CCN(c3ccc([C@@H]4CCC(=O)NC4=O)cc3)CC2)CC12CCN(C(=O)C1(c3ccccc3)CCN(c3cnnc(-c4ccccc4O)c3)CC1)CC2 (mixture of isomers) [Example 171, rac-1-[(4-{4-[(3R)-2,6-dioxopiperidin-3-yl]phenyl}piperazin-1-yl)methyl]-6-{1-[6-(2-hydroxyphenyl)pyridazin-4-yl]-4-phenylpiperidine-4-carbonyl}-6-azaspiro[2.5]octane-1-carbonitrile] | 1000 nM | 41.4% | 28.5 nM | 69.5% | 35

The next molecules have a lower DC50 (SMARCA2) than those just listed; values first:

DC50 (SMARCA4) | Dmax (SMARCA4) | DC50 (SMARCA2) | Dmax (SMARCA2) | Fold Selectivity SMARCA4/2 (SMARCA2) | Compound
157 nM | 59.6% | 3.57 nM | 92.3% | 44 | CN(C(=O)C1(c2ccccc2)CCN(c2cnnc(-c3ccccc3O)c2)CC1)C1CCN(CCC2CCN(c3ccc(C4CCC(=O)NC4=O)c(F)c3)CC2)CC1 (racemic) [Example 151, rac-N-{1-[2-(1-{4-[(3R)-2,6-dioxopiperidin-3-yl]-3-fluorophenyl}piperidin-4-yl)ethyl]piperidin-4-yl}-1-[6-(2-hydroxyphenyl)pyridazin-4-yl]-N-methyl-4-phenylpiperidine-4-carboxamide]
47.5 nM | 86.2% | 10.3 nM | 92.2% | 5 | CN(C(=O)C1(c2ccccc2)CCN(c2cnnc(-c3ccccc3O)c2)CC1)C1CCN(CC2CCN(c3ccc([C@H]4CCC(=O)NC4=O)cc3)CC2)C2(CCCCC2)C1 (mixture of isomers) [Example 153, N-[(4RS)-1-[(1-{4-[(3R)-2,6-dioxopiperidin-3-yl]phenyl}piperidin-4-yl)methyl]-1-azaspiro[5.5]undecan-4-yl]-1-[6-(2-hydroxyphenyl)pyridazin-4-yl]-N-methyl-4-phenylpiperidine-4-carboxamide]
1.36 nM | 88.5% | 0.44 nM | 92% | 3 | Cn1c(=O)n(C2CCC(=O)NC2=O)c2ccc(N3CCC(CN4CCC(NC(=O)C5(c6ccccc6)CCN(c6cnnc(-c7ccccc7O)c6)CC5)CC4)CC3)cc21 (racemic) [Example 158, rac-N-{1-[(1-{1-[(3R)-2,6-dioxopiperidin-3-yl]-3-methyl-2-oxo-2,3-dihydro-1H-1,3-benzodiazol-5-yl}piperidin-4-yl)methyl]piperidin-4-yl}-1-[6-(2-hydroxyphenyl)pyridazin-4-yl]-4-phenylpiperidine-4-carboxamide]
1.45 nM | 82.2% | 0.38 nM | 89.5% | 4 | Cn1c(=O)n(C2CCC(=O)NC2=O)c2ccc(N3CCC(CN4CCC5(CC4)CN(C(=O)C4(c6ccccc6)CCN(c6cnnc(-c7ccccc7O)c6)CC4)C5)CC3)cc21 (racemic) [Example 159, rac-(3R)-3-(5-{4-[(2-{1-[6-(2-hydroxyphenyl)pyridazin-4-yl]-4-phenylpiperidine-4-carbonyl}-2,7-diazaspiro[3.5]nonan-7-yl)methyl]piperidin-1-yl}-3-methyl-2-oxo-2,3-dihydro-1H-1,3-benzodiazol-1-yl)piperidine-2,6-dione]
104 nM | 71.4% | 12 nM | 87.7% | 9 | O=C1CCC(c2ccc(N3C[C@@H]4CN(CC5CCN(C(=O)C6(c7ccccc7)CCN(c7cnnc(-c8ccccc8O)c7)CC6)CC5)C[C@H]4C3)cc2)C(=O)N1 (mixture of isomers) [Example 160, (3RS)-3-{4-[(3aS,6aS)-5-[(1-{1-[6-(2-hydroxyphenyl)pyridazin-4-yl]-4-phenylpiperidine-4-carbonyl}piperidin-4-yl)methyl]-octahydropyrrolo[3,4-c]pyrrol-2-yl]phenyl}piperidine-2,6-dione]
